Test results: ChEMBL document CHEMBL6103618, “Discovery of Novel Oxazolo[4,3-f]purine Derivatives as Antitumor Agents through PPIA Interaction” (J Med Chem, 2025)
Activity calls are given as the source filed them. The rule behind the calls is not given here.

Tests used:
HCT-116 [1] = assay: Induction of apoptosis in human HCT-116 cells assessed as viable cells at 0.6 uM incubated for 48 hrs by Annexin V-FITC/PI staining based flow cytometry (reference value: 96.2 %); assay type: functional; details: read-out: Activity
HCT-116 [2] = assay: Induction of apoptosis in human HCT-116 cells harboring siPPIA-3 assessed as late apoptotic cells at 1.2 uM by Annexin V-FITC/PI staining based flow cytometry (reference value: 3.44 %); assay type: functional
HCT-116 [3] = assay: Antiproliferative activity against human HCT-116 cells at 0.3 to 1.2 uM incubated for 48 hrs by EdU uptake assay; assay type: functional, cell-based; details: dose 0.3-1.2 µM
HCT-116 [4] = assay: Anti-migration activity in human HCT-116 cells incubated for 24 hrs by wound healing assay; assay type: functional, cell-based; details: dose 0.3-1.2 µM
HCT-116 [5] = assay: Effect on VCP expression in human HCT-116 cells upto 6 uM incubated for 30 mins followed by pronase addition measured after 30 mins by DARTS assay; assay type: functional, cell-based
HCT-116 [6] = assay: Induction of apoptosis in human HCT-116 cells harboring siPPIA-3 assessed as viable cells at 1.2 uM by Annexin V-FITC/PI staining based flow cytometry (reference value: 87.9 %); assay type: functional; details: read-out: Activity
SW480 = assay: Antiproliferative activity against human SW480 cells assessed as inhibition of cell viability incubated for 48 hrs by CCK8 assay; assay type: functional, cell-based; details: SW480, 48 h
HCT-116 [7] = assay: Induction of apoptosis in human HCT-116 cells harboring siPPIA-3 assessed as necrotic cells at 1.2 uM by Annexin V-FITC/PI staining based flow cytometry (reference value: 0.87 %); assay type: functional
HCT-116 [8] = assay: Antiproliferative activity against human HCT-116 cells assessed as inhibition of cell viability incubated for 48 hrs by CCK8 assay; assay type: functional, cell-based; details: HCT-116, 48 h
HCT-116 [9] = assay: Inhibition of cell viability in human HCT-116 cells at 0.3 to 1.2 uM incubated for 48 hrs in presence of NAC; assay type: functional, cell-based; details: dose 0.3-1.2 µM
PANC-1 = assay: Antiproliferative activity against human PANC-1 cells assessed as inhibition of cell viability incubated for 48 hrs by CCK8 assay; assay type: functional, cell-based; details: PANC-1, 48 h
HCT-116 [10] = assay: Induction of ER stress in human HCT-116 cells at 0.3 to 1.2 uM incubated for 48 hrs by ER-Tracker Red dye based analysis; assay type: functional, cell-based; details: dose 0.3-1.2 µM
HCT-116 [11] = assay: Induction of apoptosis in human HCT-116 cells assessed as late apoptotic cells at 0.6 uM incubated for 48 hrs by Annexin V-FITC/PI staining based flow cytometry (reference value: 1.55 %); assay type: functional
HeLa = assay: Antiproliferative activity against human HeLa cells assessed as inhibition of cell viability incubated for 48 hrs by CCK8 assay; assay type: functional, cell-based
HCT-116 [12] = assay: Effect on NME1 expression in human HCT-116 cells upto 6 uM incubated for 30 mins followed by pronase addition measured after 30 mins by DARTS assay; assay type: functional, cell-based; details: time 60.0 min
CT26 [13] = assay: Antitumor activity against mouse CT26 cells implanted in BALB/c mouse assessed as necrosis in tumor tissue at 15 to 45 mg/kg, ip qd treated for 14 days by H and E staining based analysis; assay type: functional, organism-based; details: dose 15-45 mg/kg, time 14.0 day
HCT-116 [14] = assay: Induction of apoptosis in human HCT-116 cells harboring siNC assessed as necrotic cells at 1.2 uM by Annexin V-FITC/PI staining based flow cytometry (reference value: 0.21 %); assay type: functional
HCT-116 [15] = assay: Induction of apoptosis in human HCT-116 cells assessed as decrease in p-ERK1/2 level by Western blot analysis; assay type: functional, cell-based; details: dose 0.3-1.2 µM
HCT-116 [16] = assay: Inhibition of colony formation in human HCT-116 cells harboring siPPIA-3 at 1.2 uM incubated for 48 hrs followed by fresh media replacement without compound on every 72 hrs for 14 days by crystal violet staining based analysis; assay type: functional, cell-based
HCT-116 [17] = assay: Anti-proliferative activity against human HCT-116 cells harboring siNC assessed as decrease in p-JNK level at 1.2 uM by Western blot analysis; assay type: functional, cell-based
HCT-116 [18] = assay: Induction of apoptosis in human HCT-116 cells harboring siNC assessed as viable cells at 1.2 uM by Annexin V-FITC/PI staining based flow cytometry (reference value: 96.9 %); assay type: functional; details: read-out: Activity
HCT-116 [19] = assay: Induction of mitochondrial dysfunction in human HCT-116 cells at 1.2 uM in presence of NAC by JC-1 dye based analysis; assay type: functional, cell-based
HCT-116 [20] = assay: Induction of mitochondrial dysfunction in human HCT-116 cells at 0.3 to 1.2 uM incubated for 48 hrs by Mito-Tracker Green probe based analysis; assay type: functional, cell-based; details: dose 0.3-1.2 µM
[21] = Acute toxicity in BALB/c mouse assessed as death rate at 500 mg/kg, ip measured for 14 days; assay type: organism-based; details: both, in vivo, time 14 day, read-out: Activity
HCT-116 [22] = assay: Induction of apoptosis in human HCT-116 cells assessed as necrotic cells at 0.6 uM incubated for 48 hrs by Annexin V-FITC/PI staining based flow cytometry (reference value: 1.15 %); assay type: functional
CT26 [23] = assay: Antitumor activity against mouse CT26 cells implanted in BALB/c mouse assessed as decrease in Ki67 level at 15 to 45 mg/kg, ip qd treated for 14 days by IHC analysis; assay type: functional, organism-based; details: dose 15-45 mg/kg, time 14.0 day
HCT-116 [24] = assay: Induction of cell cycle arrest in human HCT-116 cells assessed as accumulation at G2 phase at 0.6 uM incubated for 48 hrs by PI staining based flow cytometry (reference value: 6.08 %); assay type: functional
[25] = Toxicity in BALB/c mouse implanted with mouse CT26 cells assessed as injury in lung at 15 to 45 mg/kg, ip qd treated for 14 days by H and E staining based analysis; assay type: organism-based; details: in vivo, 336 h, dose 15-45 mg/kg, time 14 day
HCT-116 [26] = assay: Induction of apoptosis in human HCT-116 cells assessed as decrease in p-JNK level by Western blot analysis; assay type: functional, cell-based; details: dose 0.3-1.2 µM
[27] = Toxicity in BALB/c mouse implanted with mouse CT26 cells assessed as injury in kidney at 15 to 45 mg/kg, ip qd treated for 14 days by H and E staining based analysis; assay type: organism-based; details: in vivo, 336 h, dose 15-45 mg/kg, time 14 day
[28] = target: Peptidyl-prolyl cis-trans isomerase A (Homo sapiens, UniProt P62937); assay: Binding affinity to CM5 chip-immobilized PPIA (unknown origin) assessed as dissociation constant by SPR analysis
Peptidyl-prolyl cis-trans isomerase A, sequence (P62937 whole entry): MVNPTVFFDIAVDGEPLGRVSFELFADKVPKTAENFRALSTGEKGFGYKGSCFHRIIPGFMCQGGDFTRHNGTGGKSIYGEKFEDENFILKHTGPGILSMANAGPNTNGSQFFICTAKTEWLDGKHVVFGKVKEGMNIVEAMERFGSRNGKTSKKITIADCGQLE

CT26 [29] = assay: Antitumor activity against mouse CT26 cells implanted in BALB/c mouse assessed as reduction in tumor volume administered intraperitoneally once daily for 14 days; assay type: functional; details: dose 15-45 mg/kg, route ip, time 14.0 day
HCT-116 [30] = assay: Induction of apoptosis in human HCT-116 cells assessed as decrease in p-p38 level by Western blot analysis; assay type: functional, cell-based; details: dose 0.3-1.2 µM
HCT-116 [31] = assay: Induction of apoptosis in human HCT-116 cells assessed as decrease in Bcl-2 level at 0.3 to 1.2 uM incubated for 48 hrs by Western blot analysis; assay type: functional, cell-based; details: dose 0.3-1.2 µM
HCT-116 [32] = assay: Induction of apoptosis in human HCT-116 cells assessed as late apoptotic cells at 1.2 uM incubated for 48 hrs by Annexin V-FITC/PI staining based flow cytometry (reference value: 1.55 %); assay type: functional
HCT-116 [33] = assay: Induction of DNA damage in human HCT-116 cells assessed as increase in gamma-H2AX level at 0.3 to 1.2 uM incubated for 48 hrs by Western blot analysis; assay type: functional, cell-based; details: dose 0.3-1.2 µM

SMILES: C=C(C(=O)OC)N1c2nc(Cl)nc(Cl)c2N2C(c3ccccc3F)OC(C(=O)OCC)(C(=O)OCC)C12 (racemic)
- viability at 0.6 µM (HCT-116 [1]): 77.5%
- Activity (HCT-116 [2]): 3.25%
- Activity (HCT-116 [3]): Active
- Activity (HCT-116 [4]): Dose-dependent-effect
- Activity (HCT-116 [5]): No effect
- viability at 1.2 µM (HCT-116 [6]): 87%
- IC50 (SW480): 2590 nM
- Activity (HCT-116 [7]): 1.09%
- IC50 (HCT-116 [8]): 510 nM
- inhibition (HCT-116 [9]): inactive
- IC50 (PANC-1): 3310 nM
- Activity (HCT-116 [10]): Active
- Activity (HCT-116 [11]): 5.53%
- IC50 (HeLa): 690 nM
- Activity (HCT-116 [12]): No effect
- Activity (CT26 [13]): Active
- Activity (HCT-116 [14]): 0.57%
- Activity (HCT-116 [15]): Dose-dependent-effect
- inhibition (HCT-116 [16]): inactive
- Activity (HCT-116 [17]): Active
- viability at 1.2 µM (HCT-116 [18]): 77.8%
- Activity (HCT-116 [19]): inactive
- Activity (HCT-116 [20]): Active
- mortality at 336 h [21]: 60%
- Activity (HCT-116 [22]): 2.12%
- Activity (CT26 [23]): Active
- Activity (HCT-116 [24]): 4.71%
- Activity [25]: Non-toxic
- Activity (HCT-116 [26]): Dose-dependent-effect
- Activity [27]: Non-toxic
- Kd [28]: 520 nM
- Activity (CT26 [29]): Dose-dependent-effect
- Activity (HCT-116 [30]): Dose-dependent-effect
- Activity (HCT-116 [31]): Active
- Activity (HCT-116 [32]): 8.35%
- Activity (HCT-116 [33]): Active
